This note sets out measurements from US12447165B2, “Intratumoral vein-formation promoting agent” (OSAKA UNIVERSITY, priority 2016, dated 2025).

The subject of assay [1] is LLC cells. The experiment in a line: Various phosphatidylcholines: intratumoral lymphocyte infiltration, LLC cancer-bearing mice (Example 9). Format: in vivo, mouse. Particulars: LLC tumor; PC 3 mg/kg i.v. once daily day 7 to 13; harvested day 14; CD4- and CD8-positive cells. The source says: The PCs of Group A were dioctanoyl phosphatidylcholine (Avanti POLAR LIPIDS), dimyristoyl phosphatidylcholine (Nippon Fine Chemical), distearoyl phosphatidylcholine (Nippon Fine Chemical), dioleoyl phosphatidylcholine (Nippon Fine Chemical) and dilinoleoyl phosphatidylcholine (Avanti POLAR LIPIDS). The PCs of Group B were (1-palmitoyl-2-myristoyl) phosphatidylcholine (Avanti POLAR LIPIDS) and (1-palmitoyl-2-oleoyl) phosphatidylcholine (Avanti POLAR LIPIDS).
In the same manner as in Example 1, LLC cells ([…] cells in 100 μL of PBS per animal) were subcutaneously injected into C57BL/6NCrSlc mice aged 8 weeks (females, SLC, Inc.) to generate cancer-bearing mice. For 7 consecutive days from day 7 to day 13 post-cancer cell inoculation, the PCs indicated above were administered at a dose of 3 mg/kg (100 μL) once daily via the mouse tail vein. The vehicle was administered to the mice of the control group. On the day following the final administration (day 14 post-inoculation), the tumors were harvested from the mice. In the same manner as in Example 1, tumor tissue sections were prepared, tumor vasculature was observed, and intratumoral lymphocyte infiltration was examined.

Assay [2] has as its system human umbilical vein endothelial cells (HUVECs). The experiment in a line: Tubulogenesis of cultured HUVECs on Matrigel with VEGF (Examples 13 and 14). Format: cell-based. Particulars: HUVEC on Matrigel, Example 14. The protocol:
Each well of a 48-well plate was coated with 200 μL of Matrigel (BD biosciences), and human umbilical vein endothelial cells (HUVECs; Kurabo Industries Ltd.) were seeded at 5×10^4 cells/200 μL/well and cultured. For the culture, HuMedia-EB2 medium (Kurabo Industries, Ltd.) supplemented with 1% FCS was used. VEGF (recombinant human VEGF165, Peprotech) was added at a final concentration of 10 ng/mL to the culture medium to induce tubulogenesis of the vascular endothelial cells. Soybean PC was also added at 10 μM concomitantly with VEGF. At 12 to 16 hours after the start of the culture, the cells were photographed under a microscope. In addition, Hoechst (Boehringer Ingelheim) was added to stain cell nuclei, and newly formed blood vessels were observed. The wells not containing the soybean PC were used as a control.
The same experiment as in Example 12 was performed using soybean PC and other 8 types of PCs. The PCs were classified as Group A or B as with Example 8. The PCs used were as follows (see Table 2).

For another assay, the system named is intratumoral vessels. In words: Phosphatidylcholine administration to lysophosphatidic acid receptor 4-deficient mice. Format: in vivo, mouse. The text has this:
Lysophosphatidic acid is enzymatically synthesized from lysophosphatidylcholine, which is produced by enzymatic decomposition of phosphatidylcholine. Considering this, there was a possibility that the newly discovered effects of phosphatidylcholine might be underlain by the mechanism that the administered phosphatidylcholine undergoes in vivo decomposition into lysophosphatidic acid, which activates a lysophosphatidic acid receptor and thereby produces the effects. However, the structural improvement of intratumoral vessels and the promotion of immune cell infiltration after phosphatidylcholine administration were not observed after lysophosphatidyicholine administration (see Reference Example 1). […] Therefore, the effects of phosphatidylcholine were proven not to be mediated by a lysophosphatidic acid receptor.

Assay [3] deals with LLC cells. The experiment in a line: Tumor volume, combination of soybean PC and 5-FU, LLC cancer-bearing mice (Example 12). The format is in vivo, mouse. The following applies: soybean PC 3 mg/kg i.v. daily day 7 to 20, 5-FU 20 mg/kg i.p. day 7 and 14, volume to day 21. The protocol: LLC cells (1×10^6 cells in 100 μL of PBS per animal) were subcutaneously injected into C57BL/6NCrSlc mice aged 8 weeks (females, SLC, Inc.) to generate cancer-bearing mice. The mice were assigned to 4 groups: a soybean PC group, a 5-FU group, a soybean PC plus 5-FU group, and a control group (vehicle administration group) (3 animals per group). For the soybean PC group and the soybean PC plus 5-FU group, in the same manner as in Example 1, 3 mg/kg (100 μL) of the soybean PC was administered once daily via the mouse tail vein for […] from day 7 to day 20 post-cancer cell inoculation. For the 5-FU group and the soybean PC plus 5-FU group, 5-FU (Kyowa Hakko Kirin Co., Ltd.) was intraperitoneally administered at a dose of 20 mg/kg on day 7 and day 14 post-cancer cell inoculation. Tumor volume was measured on day 7, day 14 and day 21 post-cancer cell inoculation. The tumor volume was calculated by the following formula: length×width×height×0.5.

Turning to `CCCCCCCCCCCCCCCCCC(=O)OC[C@H](COP(=O)([O-])OCC[N+](C)(C)C)OC(=O)CCCCCCCCCCCCCCCCC` [Distearoyl phosphatidylcholine, distearoyl phosphatidylcholine], in the assay on LLC cells [1], the “Lymphocyte Infiltration” value was “yes”. In addition, in assay [2], the Vein-like morphological change result is reported as “yes”. With `CCCCCCCC(=O)OCC(COP(=O)([O-])OCC[N+](C)(C)C)OC(=O)CCCCCCC` (stereo not drawn) [Dioctanoyl phosphatidylcholine, dioctanoyl phosphatidylcholine], the “Lymphocyte Infiltration” value with LLC cells [1] is on record as “yes”. For the same compound, in assay [2], the Vein-like morphological change result is listed as “yes”. With phosphatidylcholine, in the assay with intratumoral vessels, the immune cell infiltration result was “promoted immune cell infiltration” and the “structure of intratumoral vessels” value is “improved the structure of intratumoral vessels”. With `CCCCCCCC/C=C\CCCCCCCC(=O)OC[C@H](COP(=O)([O-])OCC[N+](C)(C)C)OC(=O)CCCCCCC/C=C\CCCCCCCC` [Dioleoyl phosphatidylcholine, dioleoyl phosphatidylcholine], the “Lymphocyte Infiltration” value in the assay on LLC cells [1] is “yes”. Further, in assay [2], the Vein-like morphological change result was “yes”.

Consider `CCCCCCCC/C=C\CCCCCCCC(=O)O[C@H](COC(=O)CCCCCCCCCCCCCCC)COP(=O)([O-])OCC[N+](C)(C)C` [(1-palmitoyl-2-oleoyl) phosphatidylcholine], for which, in the assay on LLC cells [1], the “Lymphocyte Infiltration” value is recorded as “yes”. The Vein-like morphological change entry in assay [2] is “yes”. Regarding `O=c1[nH]cc(F)c(=O)[nH]1` [5-FU], the “tumor volume (tumor growth) as compared with the control group” value in the assay with LLC cells [3] is given as “tumor growth inhibition”. Take `CCCCCCCCCCCCCC(=O)OC[C@H](COP(=O)([O-])OCC[N+](C)(C)C)OC(=O)CCCCCCCCCCCCC` [Dimyristoyl phosphatidylcholine, dimyristoyl phosphatidylcholine]: the “Lymphocyte Infiltration” value in the assay on LLC cells [1] is “yes”. Also, the Vein-like morphological change entry in assay [2] was “yes”. Take `CC/C=C\C/C=C\C/C=C\C/C=C\C/C=C\C/C=C\CCC(=O)OC[C@H](COP(=O)([O-])OCC[N+](C)(C)C)OC(=O)CC/C=C\C/C=C\C/C=C\C/C=C\C/C=C\C/C=C\CC` [Didocosahexaenoyl phosphatidylcholine, didocosahexaenoyl phosphatidylcholine]: the Vein-like morphological change result in assay [2] was “yes”. In the case of `CCCCC/C=C\C/C=C\CCCCCCCC(=O)OC[C@H](COP(=O)([O-])OCC[N+](C)(C)C)OC(=O)CCCCCCC/C=C\C/C=C\CCCCC` [Dilinoleoyl phosphatidylcholine, dilinoleoyl phosphatidylcholine], in the assay with LLC cells [1], the “Lymphocyte Infiltration” value is “yes”. Also, the Vein-like morphological change entry in assay [2] is “yes”. As to `CCCCCCCCCCCCCCCC(=O)OC[C@H](COP(=O)([O-])OCC[N+](C)(C)C)OC(=O)CCCCCCCCCCCCC` [(1-palmitoyl-2-myristoyl) phosphatidylcholine], in the assay with LLC cells [1], the “Lymphocyte Infiltration” value is on record as “yes”. For the same compound, in assay [2], the Vein-like morphological change entry is on record as “yes”.
